Experimental data taken from patent US20260041620A1, “NOVEL AMINO ACID BASED SALTS, COMPOSITIONS AND METHODS FOR TREATING SKIN AND IMPROVING SKIN REJUVENATION AND LONGEVITY” (Sytheon Ltd, priority 2023, published 2026).
Marks after values point to notes of the source that are not given here.

Tests used:
[1] = tested on: Telomerase; assay: Telomerase Activity Quantification qPCR Assay in human dermal fibroblasts; type: cell-based; details: three days
Experimental: Normal neonatal human dermal fibroblasts (HDF cat, #2310; ScienCell, Oceanside, CA) were grown to confluence in the 6 well plate format and incubated with the test substances identified in Table 3 for three days. Following incubation, the cells were lysed and telomerase activity was determined with Telomerase Activity Quantification qPCR Assay Kit from ScienCell (cat. #8928). Forget-Me-Not™ EvaGreen® qPCR Master Mix (Low ROX) (Biotium, Fremont, CA) was used for real-time quantitative PCR on C1000 Touch System with CFX384™ optical module Detection. For quantifying the level of activity, the Comparative Cq method was used, following the equation: […]
where TPS is telomere primer set, which recognizes and amplifies newly synthesized telomere sequences and Cq(TPS) is the Quantification Cycle Value obtained from the qPCR software. The relative telomerase activity difference between the experimental condition and control is expressed as 2^−ΔCq Telomerase activity was considered different if the level of expression was reasonably high (Cq≤33 cycles to detect), the difference vs. control was >2 fold and the p value, assessed with two-tailed Student test, was <0.05.

[2] = molecular target: HDAC2 (Homo sapiens, UniProt Q92769); details: reported, abcam; cited from earlier work
[3] = molecular target: T1, HDAC6 (Homo sapiens, UniProt Q9UBN7); details: reported, abcam; cited from earlier work
T1 sequence (Q9UBN7 1-1215): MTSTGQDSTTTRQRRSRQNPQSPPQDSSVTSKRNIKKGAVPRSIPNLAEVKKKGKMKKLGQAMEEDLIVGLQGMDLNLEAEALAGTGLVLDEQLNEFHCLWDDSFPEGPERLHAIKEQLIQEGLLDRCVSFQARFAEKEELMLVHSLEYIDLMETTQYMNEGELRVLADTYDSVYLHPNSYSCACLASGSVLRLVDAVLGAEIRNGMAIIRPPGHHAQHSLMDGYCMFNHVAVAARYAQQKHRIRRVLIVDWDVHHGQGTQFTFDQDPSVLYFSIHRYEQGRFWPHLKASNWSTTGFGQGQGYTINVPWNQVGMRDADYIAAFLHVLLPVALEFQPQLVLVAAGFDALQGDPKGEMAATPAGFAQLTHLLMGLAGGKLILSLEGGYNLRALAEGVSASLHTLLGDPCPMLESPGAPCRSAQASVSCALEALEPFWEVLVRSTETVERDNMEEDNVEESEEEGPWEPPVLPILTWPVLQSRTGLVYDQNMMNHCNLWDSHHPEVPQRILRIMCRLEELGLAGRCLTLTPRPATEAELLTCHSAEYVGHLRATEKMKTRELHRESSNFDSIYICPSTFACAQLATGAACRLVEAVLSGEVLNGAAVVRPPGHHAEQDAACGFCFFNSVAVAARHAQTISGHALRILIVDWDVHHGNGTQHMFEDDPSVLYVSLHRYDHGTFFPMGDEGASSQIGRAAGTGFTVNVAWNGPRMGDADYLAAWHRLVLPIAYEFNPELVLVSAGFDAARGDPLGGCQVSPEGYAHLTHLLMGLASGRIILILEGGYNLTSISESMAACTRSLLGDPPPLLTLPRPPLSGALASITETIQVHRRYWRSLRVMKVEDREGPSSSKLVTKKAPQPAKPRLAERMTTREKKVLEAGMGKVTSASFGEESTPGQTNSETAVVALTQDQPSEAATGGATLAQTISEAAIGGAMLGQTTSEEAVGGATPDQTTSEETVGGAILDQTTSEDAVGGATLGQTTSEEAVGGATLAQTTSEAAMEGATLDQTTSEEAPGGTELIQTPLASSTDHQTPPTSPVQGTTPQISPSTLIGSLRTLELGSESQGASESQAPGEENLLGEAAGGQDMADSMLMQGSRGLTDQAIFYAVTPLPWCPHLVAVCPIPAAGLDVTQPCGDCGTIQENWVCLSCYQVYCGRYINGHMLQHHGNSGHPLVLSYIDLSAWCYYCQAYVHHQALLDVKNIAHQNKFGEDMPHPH

[4] = tested on: normal human adipose-derived mesenchymal stem cells (MSC); assay: Reprograming of aged mesenchymal stem cells, gene expression by qPCR; type: cell-based; details: 10 ug/ml, 72 hours, starved MSC
Text: MSCs are a multipotent type of stem cell that, directly or indirectly, have a significant impact on a number of physiological processes, including the proliferation and differentiation of epidermal cells and regeneration of the epidermal layer; however, as they age they show lower stemness and regenerative potential. MSCs are shown to enhance wound healing, to restore the barrier function of the skin, and to address skin aging, particularly aging due to sun exposure as well as natural senescence, including reducing the manifestation and/or degree of wrinkles. An evaluation was conducted to ascertain the effect, if any, of zinc di-(di-n-butyryl lysinate) (“ZDBL”) on MSCs. Specifically, normal human adipose-derived mesenchymal stem cells (MSC) (ATCC, Manassas, VA—PCS-500-011) were seeded in mesenchymal stem cell basal medium (ATCC, Manassas, VA—PCS500-030) supplemented with the MSC growth kit starvation media (ATCC, Manassas, VA—PCS500-040-811S) and cultured at 37° C. in a humidified 5% CO2 atmosphere using an VWR tissue culture incubator, Approximately 24 hours after a portion of the cells was placed in the starvation medium to generate stress, they were exposed to the ZDBL (10 ug/ml) and incubated for 72 hours: the remaining portion was not exposed to the ZDBL. RNA was then extracted for gene expression quantification by qPCR.

Sequence of HDAC2 (Q92769 whole entry): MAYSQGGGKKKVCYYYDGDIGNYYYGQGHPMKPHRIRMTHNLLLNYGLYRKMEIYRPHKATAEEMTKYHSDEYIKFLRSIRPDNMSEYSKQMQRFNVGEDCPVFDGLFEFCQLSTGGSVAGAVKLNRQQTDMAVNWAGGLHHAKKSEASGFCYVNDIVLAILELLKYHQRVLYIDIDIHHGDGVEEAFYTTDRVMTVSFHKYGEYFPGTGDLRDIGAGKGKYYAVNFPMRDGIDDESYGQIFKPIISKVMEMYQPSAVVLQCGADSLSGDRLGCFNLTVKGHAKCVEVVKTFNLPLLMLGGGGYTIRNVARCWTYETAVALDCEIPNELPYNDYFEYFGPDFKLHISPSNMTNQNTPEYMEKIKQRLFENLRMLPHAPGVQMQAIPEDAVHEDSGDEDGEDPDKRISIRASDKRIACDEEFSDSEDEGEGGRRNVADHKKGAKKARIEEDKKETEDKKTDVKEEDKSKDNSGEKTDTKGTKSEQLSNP

## CCCC(=O)[O-].[Na+] [Sodium butyrate, reference compound]
[1]; 50 μg/ml
  Average Cq(TPS): 34.3
  Telomerase Activity (FC vs. water): 0.7 FC
  ΔCq sample-water: −0.5
[1]; 100 μg/ml
  Average Cq(TPS): 33.7
  Telomerase Activity (FC vs. water): 1.1 FC
  ΔCq sample-water: 0.1
[2]
  IC50: 400 µM
[3]
  inhibition of HDAC6: no inhibition

## CCCC(=O)NCCCC[C@H](NC(=O)CCC)C(=O)[O-].CCCC(=O)NCCCC[C@H](NC(=O)CCC)C(=O)[O-].[Zn+2] [Zn di-(di-n-butyryl lysinate), Zinc di-(di-n-butyryl lysinate)]
[4]
  BMP7 gene expression, Fold Change versus control: 1.8* fold
  DACT1 gene expression, Fold Change versus control: 2.2** fold
  DLK1 gene expression, Fold Change versus control: 2.4** fold
  DPP4 gene expression, Fold Change versus control: −1.8** fold
  OCT4 gene expression, Fold Change versus control: 1.7** fold
  SOX2 gene expression, Fold Change versus control: 2.4* fold
  SQSTM1/p62 gene expression, Fold Change versus control: 1.7* fold
  TP63 gene expression, Fold Change versus control: 3.0** fold
  WNT2 gene expression, Fold Change versus control: 1.9** fold
[1]; 10 μg/ml
  Average Cq(TPS): 30.7
  Telomerase Activity (FC vs. water): 8.9 FC
  ΔCq sample-water: 3.2
[1]; 50 μg/ml
  Average Cq(TPS): 30.0
  Telomerase Activity (FC vs. water): 14.6 FC
  ΔCq sample-water: 3.9
